Structures can show the parent of a compound that is named as a salt. Bounds are passed on as bounds.

One test deals with T1, PI3Kδ (p110δ/p85α) (Homo sapiens, UniProt O00329).
T1 construct: purchased Millipore (Bedford, Mass.)
T1 sequence (O00329 whole entry): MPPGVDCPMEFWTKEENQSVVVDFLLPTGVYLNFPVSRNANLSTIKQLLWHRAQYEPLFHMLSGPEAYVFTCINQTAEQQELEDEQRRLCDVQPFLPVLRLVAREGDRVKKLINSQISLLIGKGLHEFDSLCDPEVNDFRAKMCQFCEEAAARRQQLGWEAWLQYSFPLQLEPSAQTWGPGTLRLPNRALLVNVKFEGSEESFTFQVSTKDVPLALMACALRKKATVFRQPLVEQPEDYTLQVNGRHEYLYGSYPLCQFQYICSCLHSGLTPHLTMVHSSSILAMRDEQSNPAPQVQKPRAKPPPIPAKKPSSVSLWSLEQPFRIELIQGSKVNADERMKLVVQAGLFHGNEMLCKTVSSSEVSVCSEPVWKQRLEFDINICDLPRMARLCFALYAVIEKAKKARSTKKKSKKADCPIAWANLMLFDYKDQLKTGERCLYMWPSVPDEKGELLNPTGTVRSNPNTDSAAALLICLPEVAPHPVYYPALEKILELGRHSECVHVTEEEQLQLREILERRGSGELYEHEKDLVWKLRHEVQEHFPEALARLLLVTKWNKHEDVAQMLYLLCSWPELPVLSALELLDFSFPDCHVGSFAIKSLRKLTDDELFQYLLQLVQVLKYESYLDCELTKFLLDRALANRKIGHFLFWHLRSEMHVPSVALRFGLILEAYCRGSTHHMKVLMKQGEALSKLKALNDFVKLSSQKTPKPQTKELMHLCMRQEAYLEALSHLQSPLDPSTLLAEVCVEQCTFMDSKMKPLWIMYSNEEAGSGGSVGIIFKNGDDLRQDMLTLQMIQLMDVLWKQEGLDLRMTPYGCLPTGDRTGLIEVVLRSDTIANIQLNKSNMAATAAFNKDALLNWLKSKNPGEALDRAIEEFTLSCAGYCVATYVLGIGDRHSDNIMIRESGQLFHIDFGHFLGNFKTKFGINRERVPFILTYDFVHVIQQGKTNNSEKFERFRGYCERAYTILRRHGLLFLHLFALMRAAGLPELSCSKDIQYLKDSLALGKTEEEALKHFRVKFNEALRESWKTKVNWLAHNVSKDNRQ
T1 sequence (P27986 whole entry partner): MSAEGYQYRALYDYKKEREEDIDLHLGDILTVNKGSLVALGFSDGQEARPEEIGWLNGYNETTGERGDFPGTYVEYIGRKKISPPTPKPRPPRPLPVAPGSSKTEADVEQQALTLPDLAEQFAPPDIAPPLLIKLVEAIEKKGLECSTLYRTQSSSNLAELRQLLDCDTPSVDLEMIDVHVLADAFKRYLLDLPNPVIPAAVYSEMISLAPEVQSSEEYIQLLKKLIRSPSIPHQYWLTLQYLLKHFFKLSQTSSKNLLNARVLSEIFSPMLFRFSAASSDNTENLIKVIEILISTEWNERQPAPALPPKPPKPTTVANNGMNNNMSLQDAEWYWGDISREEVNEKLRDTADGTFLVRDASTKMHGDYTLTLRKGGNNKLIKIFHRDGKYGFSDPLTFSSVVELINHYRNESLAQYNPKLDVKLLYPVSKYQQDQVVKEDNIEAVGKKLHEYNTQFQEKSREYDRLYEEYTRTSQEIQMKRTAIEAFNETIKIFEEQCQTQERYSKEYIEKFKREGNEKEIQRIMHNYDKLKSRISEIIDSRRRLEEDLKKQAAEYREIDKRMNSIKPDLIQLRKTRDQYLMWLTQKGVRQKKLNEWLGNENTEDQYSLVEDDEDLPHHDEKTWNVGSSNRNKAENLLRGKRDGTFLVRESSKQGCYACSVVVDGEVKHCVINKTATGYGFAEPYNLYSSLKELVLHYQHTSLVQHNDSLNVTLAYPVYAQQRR
In words: PI3Kδ scintillation proximity assay.
Settings: not given
The class given is biochemical. The text has this:
Materials: [γ-^33P]ATP (10 mCi/mL) was purchased from Perkin-Elmer (Waltham, Mass.). Lipid kinase substrate, D-myo-Phosphatidylinositol 4,5-bisphosphate (PtdIns(4,5)P2)D (+)-sn-1,2-di-O-octanoylglyceryl, 3-O-phospho linked (PIP2), CAS 204858-53-7, was purchased from Echelon Biosciences (Salt Lake City, Utah). PI3Kδ (p110δ/p85α) was purchased from Millipore (Bedford, Mass.). ATP, MgCl2, DTT, EDTA, MOPS and CHAPS were purchased from Sigma-Aldrich (St. Louis, Mo.). Wheat Germ Agglutinin (WGA) YSi SPA Scintillation Beads was purchased from GE healthcare life sciences (Piscataway, N.J.).
Assay: The kinase reaction was conducted in polystyrene 384-well matrix white plate from Thermo Fisher Scientific in a final volume of 25 μL. Inhibitors were first diluted serially in DMSO and added to the plate wells before the addition of other reaction components. The final concentration of DMSO in the assay was 0.5%. The PI3K assays were carried out at room temperature in 20 mM MOPS, pH 6.7, 10 mM MgCl2, 5 mM DTT and CHAPS 0.03%. Reactions were initiated by the addition of ATP, the final reaction mixture consisted of 20 μM PIP2, 20 μM ATP, 0.2 μCi [γ-^33P] ATP, 4 nM PI3Kδ. Reactions were incubated for 210 minutes and terminated by the addition of 40 μL SPA beads suspended in quench buffer: 150 mM potassium phosphate pH 8.0, 20% glycerol. 25 mM EDTA, 400 μM ATP. The final concentration of SPA beads is 1.0 mg/mL. After the plate sealing, plates were shaken overnight at room temperature and centrifuged at 1800 rpm for 10 minutes, the radioactivity of the product was determined by scintillation counting on Topcount (Perkin-Elmer). IC50 determination was performed by fitting the curve of percent control activity versus the log of the inhibitor concentration using the GraphPad Prism® 3.0 software.
(In general: Scintillation proximity formats need no separation of bound from free tracer.)
As usually defined, the IC50 is the concentration needed to halve the response being measured. Consider `COCCN1CCN(c2c(C(C)Nc3ncnc4[nH]cnc34)cc(Cl)c3cccnc23)CC1` (stereo not drawn) [Example 11, N-(1-{5-chloro-8-[4-(2-methoxyethyl)piperazin-1-yl]quinolin-7-yl]ethyl)-9H-purin-6-amine tris-trifluoroacetate], for which the IC50 was < 50 nM.
On to `CC(=O)N[C@H]1CCN(c2c(C(C)Nc3ncnc4[nH]cnc34)cc(Cl)c3cccnc23)C1` (stereo partly drawn) [Example 13, N-((3S)-1-{5-chloro-7-[1-(9H-purin-6-ylamino)ethyl]quinolin-8-yl}pyrrolidin-3-yl}acetamide bis-trifluoroacetate], for which the half-inhibitory concentration (IC50) is < 50 nM.
Regarding `CC(Nc1ncnc2[nH]cnc12)c1cc(Cl)c2cccnc2c1-c1cccc(F)c1` (stereo not drawn) [Example 15, N-{1-[5-chloro-8-(3-fluorophenyl)quinolin-7-yl]ethyl}-9H-purin-6-amine bis-trifluoroacetate], the IC50 is < 50 nM.
Still for that read-out and setting: under `CC(Nc1ncnc2[nH]cnc12)c1cc(F)c2ccnnc2c1-c1cccc(F)c1` (stereo not drawn) [Example 19, N-{1-[5-Fluoro-8-(3-fluorophenyl)cinnolin-7-yl]ethyl}-9H-purin-6-amine] stands 100 to 250 nM.
In the case of `Fc1cccc(-c2c(CNc3ncnc4[nH]cnc34)cc(Cl)c3ccnnc23)c1` [Example 31, N-{[5-Chloro-8-(3-fluorophenyl)cinnolin-7-yl]methyl}-9H-purin-6-amine trifluoroacetate], the IC50 lay within 500 to 1000 nM.
Still for that read-out and setting: as for `CNC(=O)c1cc(F)cc(-c2c(C(C)Nc3ncnc4[nH]cnc34)cc(Cl)c3ccnnc23)c1` (stereo not drawn) [Example 40, 3-{5-Chloro-7-[1-(9H-purin-6-ylamino)ethyl]cinnolin-8-yl}-5-fluoro-N-methylbenzamide], the figure is > 1000 nM; as for `COc1ccc(-c2c(C(C)Nc3ncnc4[nH]cnc34)cc(Cl)c3ccnnc23)cc1F` (stereo not drawn) [Example 41, N-{1-[5-Chloro-8-(3-fluoro-4-methoxyphenyl)cinnolin-7-yl]ethyl}-9H-purin-6-amine], 500 to 1000 nM; as for `CC(Nc1ncnc2[nH]cnc12)c1cc(Cl)c2ccnnc2c1-c1ccnc(F)c1` (stereo not drawn) [Example 42, N-{1-[5-Chloro-8-(2-fluoropyridin-4-yl)cinnolin-7-yl]ethyl}-9H-purin-6-amine], 500 to 1000 nM.
For the compound `CC(Nc1ncnc2[nH]cnc12)c1cc(Cl)c2cccnc2c1N1CCC(O)CC1` (stereo not drawn) [Example 43, 1-{5-Chloro-7-[1-(9H-purin-6-ylamino)ethyl]quinolin-8-yl}piperidin-4-ol], the IC50 is < 50 nM.
The same measure, in the same setting: under `Cc1nc(C(C)Nc2ncnc3[nH]cnc23)c(-c2cccc(F)c2)c2ccccc12` (stereo not drawn) [Example 44, N-{1-[4-(3-Fluorophenyl)-1-methylisoquinolin-3-yl]ethyl}-9H-purin-6-amine] stands 100 to 250 nM; under `CC(Nc1ncnc2[nH]cnc12)c1cc(Cl)c2ccccc2c1N1CCC(O)CC1` (stereo not drawn) [Example 45, 1-{4-Chloro-2-[1-(9H-purin-6-ylamino)ethyl]-1-naphthyl}piperidin-4-ol], < 50 nM.
`CC(Nc1ncnc2[nH]cnc12)c1cc(Cl)c2ccccc2c1-c1cccc(F)c1` (stereo not drawn) [Example 46, N-{1-[4-Chloro-1-(3-fluorophenyl)-2-naphthyl]ethyl}-9H-purin-6-amine] displayed an IC50 of 100 to 250 nM.
The same measure, in the same setting: under `CC(Nc1ncnc2[nH]cnc12)c1cc(Cl)c2cccnc2c1N1CCC(F)(F)CC1` (stereo not drawn) [Example 47, N-{1-[5-Chloro-8-(4,4-difluoropiperidin-1-yl)quinolin-7-yl]ethyl}-9H-purin-6-amine] stands 500 to 1000 nM; under `CC(Nc1ncnc2[nH]cnc12)c1cc(Cl)c2cccnc2c1N1CCC(O)(c2ccccc2)CC1` (stereo not drawn) [Example 49, 1-{5-Chloro-7-[1-(9H-purin-6-ylamino)ethyl]quinolin-8-yl}-4-phenylpiperidin-4-ol], > 1000 nM.
Regarding `Cc1cc(C(C)Nc2ncnc3[nH]cnc23)c(-c2cccc(F)c2)c2ncccc12` (stereo not drawn) [Example 50, N-{1-[8-(3-Fluorophenyl)-5-methylquinolin-7-yl]ethyl}-9H-purin-6-amine], the IC50 was in the range of 100 to 250 nM.
As to `CCc1cc(C(C)Nc2ncnc3[nH]cnc23)c(-c2cccc(F)c2)c2ncccc12` (stereo not drawn) [Example 51, N-{1-[5-Ethyl-8-(3-fluorophenyl)quinolin-7-yl]ethyl}-9H-purin-6-amine bis(trifluoroacetate)], the half-inhibitory concentration (IC50) was in the range of 50 to 100 nM.
Consider `CC(Nc1ncnc2[nH]cnc12)c1cc(C#N)c2cccnc2c1-c1cccc(F)c1` (stereo not drawn) [Example 52, 8-(3-fluorophenyl)-7-[1-(9H-purin-6-ylamino)ethyl]quinoline-5-carbonitrile], for which the 50% inhibitory concentration (IC50) was 50 to 100 nM.
As to `CC(Nc1ncnc2[nH]cnc12)c1nc(C#N)c2ccccc2c1-c1cccc(F)c1` (stereo not drawn) [Example 54, 4-(3-fluorophenyl)-3-[1-(9H-purin-6-ylamino)ethyl]isoquinoline-1-carbonitrile], the IC50 lay within 50 to 100 nM.
In the case of `CC(Nc1ncnc2[nH]cnc12)c1cc(F)c2cccnc2c1N1CCN(C2CCC2)CC1` (stereo not drawn) [Example 55, N-{1-[8-(4-Cyclobutylpiperazin-1yl)-5-fluoroquinolin-7-yl]ethyl}-9H-purin-6-amine], the half-maximal inhibitory concentration (IC50) is < 50 nM.
Same read-out and setting: under `CC(Nc1ncnc2[nH]cnc12)c1cc(Cl)c2ccncc2c1-c1cccc(F)c1` (stereo not drawn) [Example 56, N-{1-[5-Chloro-8-(3-fluorophenyl)isoquinolin-7-yl]ethyl}-9H-purin-6-amine] stands < 50 nM.
As to `CC(Nc1ncnc2[nH]cnc12)c1cc(Cl)c2cccnc2c1N1CCN(CCO)CC1` (stereo not drawn) [Example 58, 2-(4-{5-Chloro-7-[1-(9H-purin-6-ylamino)ethyl]quinolin-8-yf}piperazin-1-yl)ethanol tris(trifluoroacetate)], the half-inhibitory concentration (IC50) was < 50 nM.
Take `CC(Nc1ncnc2[nH]cnc12)c1cc(Cl)c2cccnc2c1N1CCC(C#N)CC1` (stereo not drawn) [Example 59, 1-{5-Chloro-7-[1-(9H-purin-6-ylamino)ethyl]quinolin-8-yl]piperidine-4-carbonitrile bis(trifluoroacetate)]: the IC50 was 100 to 250 nM.
Same read-out and setting: as for `CC(Nc1ncnc2[nH]cnc12)c1cc(Cl)c2cccnc2c1N1CCCC(F)C1` (stereo not drawn) [Example 61, N-{1-[5-Chloro-8-(3-fluoropiperidin-1-yl)quinolin-7-yl]ethyl}-9H-purin-6-amine bis(trifluoroacetate)], the figure is 250 to 500 nM; as for `CC(Nc1ncnc2[nH]cnc12)c1cc(Cl)c2cccnc2c1N1CCC(F)CC1` (stereo not drawn) [Example 62, N-{1-[5-Chloro-8-(4-fluoropiperidin-1-yl)quinolin-7-yl]ethyl}-9H-purin-6-amine bis(trifluoroacetate)], 100 to 250 nM.
The compound `CC(Nc1ncnc2[nH]cnc12)c1cc(Cl)c2cccnc2c1N1CCC(CO)CC1` (stereo not drawn) [Example 64, (1-{5-Chloro-7-[1-(9H-purin-6-ylamino)ethyl]quinolin-8-yl}piperidin-4-yl)methanol tris(trifluoroacetate)] displayed an IC50 of 100 to 250 nM.
`CC(Nc1ncnc2[nH]cnc12)c1cc(Cl)c2cccnc2c1N1CCN(C2CCCCC2)CC1` (stereo not drawn) [Example 65, N-{1-[5-Chloro-8-(4-cyclohexylpiperazin-1-yl)quinolin-7-yl]ethyl}-9H-purin-6-amine tris(trifluoroacetate)] registered a half-inhibitory concentration (IC50) of 50 to 100 nM.
As for `CC(Nc1ncnc2[nH]cnc12)c1cc(Cl)c2cccnc2c1N1CCN(C2CC2)CC1` (stereo not drawn) [Example 66, N-{1-[5-Chloro-8-(4-cyclopropylpiperazin-1-yl)quinolin-7-yl]ethyl}-9H-purin-6-amine tris(trifluoroacetate)], the half-inhibitory concentration (IC50) was < 50 nM.
As to `CC(Nc1ncnc2[nH]cnc12)c1cc(Cl)c2cccnc2c1N1CCN(C2CCC2)CC1` (stereo not drawn) [Example 69, N-{1-[5-Chloro-8-(4-cyclobutylpiperazin-1-yl)quinolin-7-yl]ethyl}-9H-purin-6-amine tris(trifluoroacetate)], the IC50 was < 50 nM.
`CC(Nc1ncnc2[nH]cnc12)c1cc(Cl)c2cccnc2c1N1CCC(N2CCCCC2)CC1` (stereo not drawn) [Example 70, N-{1-[8-(1,4′-Bipiperidin-1′-yl)-5-chloroquinolin-7-yl]ethyl}-9H-purin-6-amine tris(trifluoroacetate)] had an IC50 of 50 to 100 nM.
The same measure, in the same setting: as for `COC1CCN(c2c(C(C)Nc3ncnc4[nH]cnc34)cc(Cl)c3cccnc23)CC1` (stereo not drawn) [Example 71, N-{1-[5-Chloro-8-(4-methoxypiperidin-1-yl)quinolin-7-yl]ethyl}-9H-purin-6-amine bis(trifluoroacetate)], the figure is 50 to 100 nM; as for `CC(Nc1ncnc2[nH]cnc12)c1cc(Cl)c2cccnc2c1N1CCC(c2ccccc2)CC1` (stereo not drawn) [Example 72, N-{1-[5-Chloro-8-(4-phenylpiperidin-1-yl)quinolin-7-yl]ethyl}-9H-purin-6-amine bis(trifluoroacetate)], > 1000 nM.

The same test, now with this note: separated isomer, 1st peak.
Consider `CC(Nc1ncnc2[nH]cnc12)c1cc(Cl)c2cccnc2c1N1CC[C@@H](O)C1` (stereo partly drawn) [Example 12, (3R)-1-{5-chloro-7-[1-(9H-purin-6-ylamino)ethyl]quinolin-8-yl}pyrrolidin-3-ol bis-trifluoroacetate], for which the 50% inhibitory concentration (IC50) was > 1000 nM.

The same test, now with this note: separated isomer, 2nd peak.
In the case of `CC(Nc1ncnc2[nH]cnc12)c1cc(Cl)c2cccnc2c1N1CC[C@@H](O)C1` (stereo partly drawn) [Example 12, (3R)-1-{5-chloro-7-[1-(9H-purin-6-ylamino)ethyl]quinolin-8-yl}pyrrolidin-3-ol bis-trifluoroacetate], the IC50 is < 50 nM.

For the origin of these results see patent publication US8680108B2, “Substituted fused aryl and heteroaryl derivatives as PI3K inhibitors” (Incyte Corporation, priority 2009, dated 2014).
